The Kd is the constant that tells how readily two partners part at equilibrium.

Square brackets hold non-standard residues; d marks the D form. Ends that are not written are not given here. Peptide text beside a SMILES is read from it. Abu(4-PO3H2) = N[C@@H](CCP(=O)(O)O)C(=O)O; pS = N[C@@H](COP(=O)(O)O)C(=O)O

The assay deals with HLA-B*0702 (Homo sapiens, UniProt P01889). The experiment in a line: Alpha assay, peptide binding to HLA-B*0702. The conditions noted are these: Alpha assay (luminescent oxygen channeling), W6/32 antibody and biotinylated recombinant HLA class I; non-linear fit. How it is done: Peptides were dissolved in dimethyl sulfoxide (DMSO) at concentrations of 2–20 mg/mL, aliquoted and stored at −80 °C. Peptide-pulsing experiments were performed by pre-incubating T2 cells with 25 μg peptide per 1 × 10^6 cells in PBS for 2 h at 37 °C and 5% CO2, washed three times to remove unbound peptides and used for further downstream analysis. Peptide-pulsed T2 cells were incubated with effector cells in a 2:1 ratio overnight in SF-IMDM at 37 °C and 10% CO2, washed twice and stained with anti-mouse TCR-® chain clone H57-597 (BD Pharmingen #560656, 1:500) for 30 min at RT. Cells were washed twice before FACS-analysis using a BD FACS Canto II with System software v2.0. Data analysis was performed using FlowJo V10 Software. Binding affinity between each peptide and HLA-B*0702 was determined using an Alpha assay. It is a homogenous, proximity-based assay for detection of peptides binding to HLA class I molecules using a conformation-dependent anti-HLA class I antibody, W6/32, as one tag and a biotinylated recombinant HLA class I molecule as the other tag, and a proximity-based signal was generated through the luminescent oxygen channeling immunoassay technology (PerkinElmer) as described.
As for `CSCC[C@H](NC(=O)[C@H](CO)NC(=O)[C@H](Cc1c[nH]cn1)NC(=O)[C@H](CO)NC(=O)[C@@H]1CCCN1C(=O)[C@H](CCP(=O)(O)O)NC(=O)[C@H](CCCNC(=N)N)NC(=O)[C@@H]1CCCN1C(=O)[C@@H](N)CCC(=O)O)C(=O)O` [E7P-MLL747–755] (H-EPR[Abu(4-PO3H2)]PSHSM-OH), the dissociation constant Kd amounted to 33.9 nM.

`CSCC[C@H](NC(=O)[C@H](CO)NC(=O)[C@H](Cc1c[nH]cn1)NC(=O)[C@H](CO)NC(=O)[C@@H]1CCCN1C(=O)[C@H](COS(=O)(=O)O)NC(=O)[C@H](CCCNC(=N)N)NC(=O)[C@@H]1CCCN1C(=O)[C@@H](N)CCC(=O)O)C(=O)O` [OSE-MLL747–755]: the dissociation constant Kd turned out to be 26.2 nM.

For `CC(C)C[C@H](NC(=O)[C@H](CCC(N)=O)NC(=O)[C@H](Cc1c[nH]cn1)NC(=O)[C@H](C)NC(=O)[C@@H]1CCCN1C(=O)[C@H](COP(=O)(O)O)NC(=O)[C@H](C)NC(=O)[C@@H]1CCCN1C(=O)[C@@H](N)CC(C)C)C(=O)O` [pDOT1L998–1006] (H-LPA[pS]PAHQL-OH), the Kd worked out at 309 nM.

As to `CSCC[C@H](NC(=O)[C@H](CO)NC(=O)[C@H](Cc1c[nH]cn1)NC(=O)[C@H](CO)NC(=O)[C@@H]1CCCN1C(=O)[C@H](COP(=O)(O)O)NC(=O)[C@H](CCCNC(=N)N)NC(=O)[C@@H]1CCCN1C(=O)[C@@H](N)CCC(=O)O)C(=O)O` [pMLL747–755] (H-EPR[pS]PSHSM-OH), the dissociation constant Kd is 56.7 nM.

On to EPRSPSHSM [MLL747–755], for which the equilibrium dissociation constant (Kd) worked out at 27 nM.

For LPASPAHQL [DOT1L998–1006], the equilibrium dissociation constant (Kd) stood at 54.3 nM.

The record behind these values is paper PMC10290117, “Molecular mechanism of phosphopeptide neoantigen immunogenicity” (Nature Communications, 2023).
